Positions of bridges follow the written chain, without caps; N, C: chain ends. Non-standard residues stand in square brackets, D forms with d. Residues, ends and D or L forms follow the SMILES beside them.
Target: T1, GBA1 in fibroblast lysates (Homo sapiens, UniProt P04062)
T1 construct: host or cells: human dermal fibroblasts
T1 sequence (P04062 40-536): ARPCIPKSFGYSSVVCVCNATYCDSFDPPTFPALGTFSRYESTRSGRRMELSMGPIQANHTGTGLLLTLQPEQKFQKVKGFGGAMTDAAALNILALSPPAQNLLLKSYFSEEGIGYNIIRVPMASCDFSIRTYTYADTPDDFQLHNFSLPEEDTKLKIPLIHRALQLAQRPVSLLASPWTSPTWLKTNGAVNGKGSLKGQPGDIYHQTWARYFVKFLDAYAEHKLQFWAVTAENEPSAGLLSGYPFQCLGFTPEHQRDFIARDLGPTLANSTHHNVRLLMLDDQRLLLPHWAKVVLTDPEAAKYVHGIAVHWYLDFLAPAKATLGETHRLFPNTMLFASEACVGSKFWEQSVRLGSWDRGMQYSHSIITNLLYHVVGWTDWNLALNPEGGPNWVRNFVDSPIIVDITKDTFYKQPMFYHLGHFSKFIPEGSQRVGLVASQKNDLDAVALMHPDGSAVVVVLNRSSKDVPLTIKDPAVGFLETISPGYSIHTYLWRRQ
Experiment: GBA1 inhibition in lysates of fibroblasts treated with peptides
Assay type: cell-based
Conditions: cells treated with peptides at increasing concentrations for 16 h, washed with PBS and homogenized; 4-MU assay
Protocol: We further investigated GBA1 inhibition in cells. Human dermal fibroblasts were initially incubated with peptide concentrations ranging from 0.1 μM (from 0.001 μM for L4, D1 and D12) to 100 μM of each cyclic peptide for […]. […] To further confirm the inability of these peptides to cross the cell membrane, we conducted in situ competitive activity-based protein profiling (cABPP) experiments using RAW 264.7 monocyte/macrophage-like cells. […] RAW 264.7 cells were then treated with increasing concentrations of cyclic peptides (0, 0.1, 1, 10, and 100 μM) for 4 hours, followed by exposure to a cell-penetrant Bodipy red broad spectrum GBA activity-based probe (ABP), JJB75[58] at 10 nM for 2 hours (Fig. S5 for chemical structures, ESI ^†). […] This cABPP experiment further confirms that the peptides are unable to cross the cell membrane (Fig. S6, ESI ^†).
Selective Cyclic Peptide Ligands as GBA1 Stabilizers Katzy et al. […]
Table S1. IC50 values for GBA1 inhibition in fibroblast lysates. Cells were treated with the peptides at increasing concentrations for 16 h, washed with PBS and homogenized. Reported values are mean ± standard deviation from 3 technical triplicates. N.D.: not determined.
Peptide GBA1 in fibroblast lysates
(1 picture or pasted object on this page, not shown here) […]
2.6. In situ cell studies
Human fibroblasts (Cambrex-Lonza CC-2511) were cultured in complete DMEM/F12 growth medium supplemented with 10% (v/v) foetal calf serum and 0.1 % (w/v) penicillin/streptomycin at 37 °C and 5% CO2. Cells were seeded in 12-well plates during passage and the incubations were started when cells were 80% - 100% confluent. Peptides were added in 500 µL medium (10 and 50 µM final concentration) and incubated overnight. After incubation cells were washed three times with cold PBS and harvested in 30 µL lysis buffer (25 mM KPi, pH 6,5 supplemented with 0.1% Triton-X 100 (v/v) and protease inhibitor). Lysates were frozen at -80 °C until use. GlcCer and GlcSph lipids were quantified as described below. In parallel, enzyme activity in cell lysates was measured using 3.7 mM 4-methylumbeliferone (4MU)-β-D-glucopyranoside in 150 mM McIlvaine buffer pH 5.2 supplemented with 0.1% bovine serum albumin (BSA) (w/v), 0.1% Triton X-100 (v/v), and 0.2% sodium taurocholate (w/v) as described above (see Table S1). […]
PBS and harvested in ice cold water. Lysates were kept at -80 °C until extraction.
2.7. 2.5. GlcCer and GlcSph lipid analysis
Levels of GlcCer and GlcSph were determined with a modified acidic Bligh & Dyer extraction (Figure 2 and S5).7 Briefly, after addition of internal standards (C17-dh-Ceramide and 13C5-Glucosylsphingosine), lipids were separated in an organic and an aqueous phase. The separated phases were dried under N2 or in a concentrator. The dried organic lower phase was reconstituted in 0.1 M NaOH in MeOH and underwent microwave-assisted deacylation. After neutralization, the samples were dried. Both phases were further extracted and desalted with equal amounts of water and butanol. The butanol phases were taken up to dryness and the lipids were dissolved in MeOH and transferred to MS vials for analysis in a LC-MS/MS system as described previously.7
2.8. Thermostability assays in rhGBA (Cerezyme)
Varying concentrations of peptides were incubated with 1 µM rhGBA1 in 20 mM HEPES pH 7.0 with 100 mM NaCl, with a final DMSO concentration of 0.5 %, for 2 hours at room temperature. Melting

Row | Compound | IC50 [nM]
1 | CC[C@H](C)[C@H](NC(=O)[C@H](CC(C)C)NC(=O)[C@H](Cc1ccc(O)cc1)NC(=O)[C@H](Cc1ccc(O)cc1)NC(=O)[C@@H]1CSCC(=O)N[C@H](Cc2ccc(O)cc2)C(=O)N[C@@H](CCCNC(=N)N)C(=O)N[C@@H](C(C)C)C(=O)N1)C(=O)N[C@H](C(=O)N[C@H](C(=O)N[C@@H](CC(C)C)C(=O)N[C@@H](CC(=O)O)C(=O)N[C@@H](CS)C(N)=O)C(C)C)[C@@H](C)O [D1] ({CH2CO}-[dY]RVCYYLITVLDC-NH2; thioether N-4) | 440
2 | CC(C)C[C@H](NC(=O)[C@@H](NC(=O)[C@H](CCCNC(=N)N)NC(=O)[C@@H]1CSCC(=O)N[C@H](Cc2ccc(O)cc2)C(=O)N[C@@H]([C@@H](C)O)C(=O)N2CCC[C@H]2C(=O)NCC(=O)N[C@@H](Cc2ccc(O)cc2)C(=O)N[C@@H](C(C)C)C(=O)N[C@@H](Cc2ccc(O)cc2)C(=O)N1)C(C)C)C(=O)N[C@@H](CCCCN)C(=O)N[C@@H](Cc1ccc(O)cc1)C(=O)N[C@@H](CS)C(N)=O [D8] ({CH2CO}-[dY]TPGYVYCRVLKYC-NH2; thioether N-8) | 5160
3 | CC(C)C[C@@H]1NC(=O)CNC(=O)[C@H](CC(C)C)NC(=O)[C@@H](Cc2ccc(O)cc2)NC(=O)CSC[C@@H](C(N)=O)NC(=O)[C@H](CO)NC(=O)[C@H](CCCCN)NC(=O)[C@H](CC(C)C)NC(=O)[C@H](Cc2ccccc2)NC(=O)[C@H](CCCNC(=N)N)NC(=O)[C@H](Cc2ccc(O)cc2)NC(=O)[C@H](Cc2c[nH]c3ccccc23)NC1=O [D12] ({CH2CO}-[dY]LGLWYRFLKSC-NH2; thioether N-12) | 334
4 | CC[C@H](C)[C@@H]1NC(=O)[C@H](CO)NC(=O)[C@H](CS)NC(=O)CNC(=O)CNC(=O)[C@H](CC(C)C)NC(=O)[C@H](Cc2ccc(O)cc2)NC(=O)[C@H](C(C)C)NC(=O)[C@H](CC(C)C)NC(=O)[C@H](CCCNC(=N)N)NC(=O)[C@@H]2CCCN2C(=O)[C@H](Cc2ccc(O)cc2)NC(=O)CSC[C@@H](C(N)=O)NC(=O)[C@H](CCC(=O)O)NC(=O)[C@H](CC(C)C)NC(=O)[C@H](CC(C)C)NC1=O [L1] ({CH2CO}-YPRLVYLGGCSILLEC-NH2; thioether N-16) | 39700
5 | CC[C@H](C)[C@H](NC(=O)[C@H](CCCNC(=N)N)NC(=O)[C@@H]1CSCC(=O)N[C@@H](Cc2ccc(O)cc2)C(=O)N[C@@H](C)C(=O)N[C@@H](Cc2ccc(O)cc2)C(=O)N[C@@H](Cc2c[nH]c3ccccc23)C(=O)N[C@@H](Cc2c[nH]c3ccccc23)C(=O)N[C@@H](CC(C)C)C(=O)N1)C(=O)N1CCC[C@H]1C(=O)N[C@@H](Cc1c[nH]c2ccccc12)C(=O)N[C@@H](CC(C)C)C(=O)N[C@@H](CO)C(=O)N[C@H](C(N)=O)C(C)C [L2] ({CH2CO}-YAYWWLCRIPWLSV-NH2; thioether N-7) | 898
6 | CC(C)C[C@@H]1NC(=O)CNC(=O)[C@H](Cc2ccccc2)NC(=O)[C@H](CC(C)C)NC(=O)[C@@H]2CCCN2C(=O)[C@H](Cc2ccc(O)cc2)NC(=O)CSC[C@@H](C(=O)N2CCC[C@H]2C(=O)N[C@@H](CC(N)=O)C(=O)N[C@@H](Cc2c[nH]c3ccccc23)C(=O)N[C@@H](Cc2ccccc2)C(=O)N2CCC[C@H]2C(=O)N[C@@H](Cc2ccc(O)cc2)C(=O)N[C@@H](CCC(N)=O)C(=O)N[C@@H](CS)C(N)=O)NC(=O)[C@H](CO)NC(=O)[C@H](Cc2ccccc2)NC1=O [L4] ({CH2CO}-YPLFGLFSCPNWFPYQC-NH2; thioether N-9) | 67
7 | CC[C@H](C)[C@@H]1NC(=O)[C@H](Cc2ccc(O)cc2)NC(=O)CSC[C@@H](C(N)=O)NC(=O)[C@H](Cc2c[nH]c3ccccc23)NC(=O)[C@H](CCC(N)=O)NC(=O)[C@H]([C@@H](C)CC)NC(=O)[C@H]([C@@H](C)CC)NC(=O)[C@@H]2CCCN2C(=O)[C@H](C(C)C)NC(=O)[C@H](Cc2ccc(O)cc2)NC(=O)[C@H](Cc2c[nH]c3ccccc23)NC(=O)[C@H](CO)NC1=O [L6] ({CH2CO}-YISWYVPIIQWC-NH2; thioether N-12) | 22300

Reference: article PMC11808397, “Development of selective nanomolar cyclic peptide ligands as GBA1 enzyme stabilisers” (RSC Chemical Biology, 2025)
